# From ChEMBL document CHEMBL1122846, “Design and synthesis of new transition-state analogue inhibitors of aspartate transcarbamylase” (J Med Chem, 1985)
# Assay: Compound is evaluated for inhibition of aspartate transcarbamoylase (ATCase).
# Set-up: species or system Escherichia coli
row,SMILES,Ki [µM]
1,O=C(O)CC(SCP(=O)(O)O)C(=O)O (configuration not stated),1100

# Assay: Compound is evaluated for inhibition of aspartate transcarbamoylase (ATCase)
# Set-up: species or system Escherichia coli
row,SMILES,Ki [µM]
1,O=C(O)CC(CSCP(=O)(O)O)C(=O)O (configuration not stated),430
2,O=C(O)CC(CS(=O)(=O)CP(=O)(O)O)C(=O)O (configuration not stated),650
3,O=C(O)CC(NC(=O)CP(=O)(O)O)C(=O)O (configuration not stated) [SPARFOSIC ACID],0.03
4,O=C(O)CC(OC(=O)CP(=O)(O)O)C(=O)O (configuration not stated),2
5,O=C(O)CC(NS(=O)(=O)CP(=O)(O)O)C(=O)O (configuration not stated),500
6,O=C(O)CC(C[S+]([O-])CP(=O)(O)O)C(=O)O (configuration not stated),2300
